# Several values for one entry are separate records, joined by “and”; a condition that tells them apart may be missing. Equal entries are not always repeated.
# Key:
# HepG2 cells = assay: Respiration in hepatocytes (Seahorse XF Mito stress test); format: cell-based, human; conditions: hepatocytes, Seahorse XF, 100 μM
# [1] = Viability assay, HepG2 cells, MTT test, 48 h; format: cell-based, human; conditions: human, HepG2 cells, sheet Fig1 panel B (HepG2), 48 h, replicates, read-out: viability, normalized to DMSO-treated controls
# Method: (§1) To study the viability of the liver cells, 5 × 10^3 HepG2 (ATCC®) or human primary cells (ThermoFisher Scientific, USA) were seeded in 100 μL of DMEM media (Gibco; Thermo Fisher Scientific, USA) supplemented with fetal bovine serum (FBS)- in a 96-well plate. […] The experiments were performed in triplicates.
# HepG2 = assay: Viability assay, HepG2 cells, MTT test, 48 h; format: cell-based, human; conditions: for viability, normalized to DMSO-treated controls: sheet Fig1 panel B (HepG2), 48 h, replicates, in % (unit assumed)
# Method: as §1
# OATP1B1 = target: T1, OATP1B1 (Homo sapiens, UniProt Q9Y6L6); assay: Uptake transporter inhibition assay, OATP1B1
# T1 sequence (Q9Y6L6 1-691): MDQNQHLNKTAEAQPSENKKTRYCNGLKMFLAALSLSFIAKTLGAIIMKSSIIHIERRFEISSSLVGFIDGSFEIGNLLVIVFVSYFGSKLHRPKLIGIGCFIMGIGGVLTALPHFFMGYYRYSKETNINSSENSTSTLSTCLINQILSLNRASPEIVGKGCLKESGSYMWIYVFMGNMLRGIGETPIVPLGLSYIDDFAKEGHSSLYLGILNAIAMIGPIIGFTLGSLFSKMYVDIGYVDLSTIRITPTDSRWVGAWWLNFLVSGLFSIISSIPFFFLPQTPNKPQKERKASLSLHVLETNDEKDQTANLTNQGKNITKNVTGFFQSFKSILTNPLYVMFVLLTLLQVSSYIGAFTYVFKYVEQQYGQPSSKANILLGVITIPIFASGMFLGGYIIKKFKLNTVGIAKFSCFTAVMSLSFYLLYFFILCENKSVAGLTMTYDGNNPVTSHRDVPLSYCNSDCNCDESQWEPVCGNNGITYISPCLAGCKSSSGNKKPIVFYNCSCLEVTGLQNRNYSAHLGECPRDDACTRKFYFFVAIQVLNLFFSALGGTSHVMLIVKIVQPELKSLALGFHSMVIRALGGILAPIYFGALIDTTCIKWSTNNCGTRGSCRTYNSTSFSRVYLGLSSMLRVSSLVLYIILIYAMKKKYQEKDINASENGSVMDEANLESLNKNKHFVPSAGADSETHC
# Method: For the uptake transporter inhibition assay, cells were washed twice with 100 μL of the appropriate buffer (HK, pH 7.4) for OATP1B1, followed by HBSS (pH 7.4) for (NTCP, OAT1, OAT2v1, OATP1A2, and OATP1B3). Uptake experiments were carried out at 37 ± 1°C in 50 μL of the respective buffer containing the probe substrate and the compound or solvent. […] After the experiment, cells were washed twice with 100 μL of cold appropriate buffer and lysed with 50 μL of 0.1 M NaOH. Radiolabeled probe substrate transport was determined by measuring an aliquot (35 μL) from each well for liquid scintillation counting.
# [2] = tested on: human primary hepatocytes; assay: Viability assay, human primary hepatocytes, RT-glo, 48 h; format: cell-based; conditions: for viability, normalized to DMSO-treated controls: sheet Fig1 panel C (primary human hepatocytes), replicates, in % (unit assumed)
# Method: as §1
# [3] = as above; format: cell-based; conditions: human, primary human hepatocytes, sheet Fig1 panel C (primary human hepatocytes), 48 h, replicates, read-out: viability, normalized to DMSO-treated controls
# Method: as §1
# in vivo = conditions: for AUC(0-t): AUC24h (Mean); for AUC24h (Mean): both
# [4] = Stability in microsomes, mouse; format: in vitro ADME; conditions: for average DEG [%]: mouse microsomes, with cofactors
# Method: The final incubation volume was 500 μL. Two control compounds (verapamil and donepezil) were included for each microsomal species, along with the appropriate vehicle control. The reactions were terminated by transferring 50 μL of incubate to 100 μL methanol containing an internal standard (metoprolol) at appropriate time points (0, 10, 20, 40, 60, and 120 min for the test compound and 0, 5, 10, 20, 40, and 60 min for the control compounds). The termination plates were centrifuged at 4000 x g at 4°C for 30 min to precipitate the protein. The supernatants were then collected for analysis, and LC-MS/MS was used for detection purposes. The system consisted of an Acquity™ Binary Solvent Manager, Acquity™ 4-position heated column manager, 2777 Ultra High Pressure Autosampler, and a Xevo-TQ MS triple quadrupole mass spectrometer (Waters Ltd., Herts, UK). This process was carried out twice.
# [5] = Mouse (CD) microsomes, mean n = 2
structure (smiles),measurement,setting,value
CC#C[C@@H](CC(=O)O)c1ccc(OCC(C)=C(C)C)cc1 [CPL207280],effect on respiration,HepG2 cells,slight respiration inhibition
same,"viability at 48 h, 3.125 µM",[1]; 3.125 uM,98.6%
same,"viability at 48 h, 6.25 µM",[1]; 6.25 uM,113%
same,"viability at 48 h, 25 µM",[1]; 25 uM,104%
same,"viability at 48 h, 50 µM",[1]; 50 uM,109%
same,reduction of viability,"HepG2; HepG2, 48 h, 100 μM",20%
same,viability,"HepG2; HepG2, 48 h, concentrations up to 10 μM",Neither compound exhibited altered viability
same,times better tolerated by hepatocytes than TAK-875,HepG2; hepatocytes (HepG2 and human primary cells),10 times
same,"viability, normalized to DMSO-treated controls",HepG2; 0.78 uM,122.329 and 97.5265 and 106.534
same,"viability, normalized to DMSO-treated controls",HepG2; 3.125 uM,108.127 and 98.0055
same,"viability, normalized to DMSO-treated controls",HepG2; 6.25 uM,101.696 and 107.84
same,"viability, normalized to DMSO-treated controls",HepG2; 25 uM,115.053 and 98.9684
same,"viability, normalized to DMSO-treated controls",HepG2; 50 uM,104.17 and 94.9794
same,"viability, normalized to DMSO-treated controls",HepG2; 100 uM,89.5534 and 112.297 and 99.381
same,IC50,OATP1B1,17.9 µM
same,"fold less inhibitory potency than TAK-875, OATP1B1",OATP1B1,at least 10 fold
same,viability,"[2]; human primary hepatocytes, 48 h, concentrations up to 10 μM",Neither compound exhibited altered viability
same,reduction of viability,"[2]; primary cells, 48 h, 100 μM",20%
same,"viability, normalized to DMSO-treated controls","[2]; 48 h, 0.78 uM",113.603 and 101.249
same,"viability, normalized to DMSO-treated controls","[2]; 48 h, 3.125 uM",114.319 and 102.513
same,"viability, normalized to DMSO-treated controls","[2]; 48 h, 6.25 uM",112.73 and 100.537
same,"viability, normalized to DMSO-treated controls","[2]; 48 h, 25 uM",106.605 and 99.5091
same,"viability, normalized to DMSO-treated controls","[2]; 48 h, 50 uM",95.5759 and 86.1766
same,"viability, normalized to DMSO-treated controls","[2]; 48 h, 100 uM",81.3191 and 75.1172
same,Toxicity for human hepatocytes,[2]; summary comparison CPL207280 vs TAK-875,<
same,"viability at 48 h, 0.78 µM",[3]; 0.78 uM,109%
same,"viability at 48 h, 3.125 µM",[3]; 3.125 uM,111%
same,"viability at 48 h, 6.25 µM",[3]; 6.25 uM,108%
same,"viability at 48 h, 25 µM",[3]; 25 uM,107%
same,"viability at 48 h, 50 µM",[3]; 50 uM,94.1%
same,"viability at 48 h, 100 µM",[3]; 100 uM,80.6%
same,Accumulation in rat plasma after repeat dose,in vivo,No
same,Cmax at 14 days,"in vivo; both sexes, Wistar Han, rat, 1200 mg/kg, Cmax",250 µg/mL
same,Cmax,"in vivo; both sexes, Wistar Han, rat, po, 150 mg/kg, Cmax",125 µg/mL
same,AUC(0-t),"in vivo; both sexes, Wistar Han, rat, po, 300 mg/kg/day",2350 µg·h/mL
same,Cmax,"in vivo; both sexes, Wistar Han, rat, po, 300 mg/kg/day, Cmax (Mean)",227 µg/mL
same,AUC(0-t),"in vivo; both sexes, Wistar Han, rat, po, 600 mg/kg/day",2920 µg·h/mL
same,Cmax,"in vivo; both sexes, Wistar Han, rat, po, 600 mg/kg/day, Cmax (Mean)",257 µg/mL
same,Cmax,"in vivo; both sexes, Wistar Han, rat, po, 1200 mg/kg, Cmax",222 µg/mL
same,AUC,"in vivo; both sexes, Wistar Han, rat, po, 1200 mg/kg, exposure - AUC",2590 µg·h/mL
same,AUC24h (Mean),"in vivo; Wistar Han, rat, po, 300 mg/kg/day",1605030 ng x hr/mL
same,AUC24h (Mean),"in vivo; Wistar Han, rat, po, 600 mg/kg/day",2156620 ng x hr/mL
same,half-life at 3 μM,[4]; [5],1.93 h
same,microsomal CLint at 3 μM,[4]; [5],11.9 µL/min/mg
same,average DEG [%],[4]; 0 min,100.0%
same,average DEG [%],[4]; 20 min,83.3%
same,average DEG [%],[4]; 40 min,69.8%
same,average DEG [%],[4]; 60 min,71.2%

# From paper PMC8459971, “Evaluation of the hepatotoxicity of the novel GPR40 (FFAR1) agonist CPL207280 in the rat and monkey” (PLoS ONE, 2021)
